Experimental data as given in patent US20240351997A1, “NOVEL PARP7 INHIBITOR AND USE THEREOF” (SHANGHAI QILU PHARMACEUTICAL RESEARCH AND DEVELOPMENT …, priority 2021, published 2024).

Biological target: PARP7 (Homo sapiens (Human), UniProt Q7Z3E1)
Experiment: In vitro enzymology experiment of PARP7 (enzymatic inhibition)
Type: biochemical
In short: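 Histone-coated plate ADP-ribosylation format: compound preincubated 10 min at room temperature with preincubated (25 °C, 10 min) enzyme mixture; incorporated biotin detected by streptavidin-HRP and QuantaRed fluorescence (Ex550/Em620).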

Chain of PARP7 (Q7Z3E1 whole entry): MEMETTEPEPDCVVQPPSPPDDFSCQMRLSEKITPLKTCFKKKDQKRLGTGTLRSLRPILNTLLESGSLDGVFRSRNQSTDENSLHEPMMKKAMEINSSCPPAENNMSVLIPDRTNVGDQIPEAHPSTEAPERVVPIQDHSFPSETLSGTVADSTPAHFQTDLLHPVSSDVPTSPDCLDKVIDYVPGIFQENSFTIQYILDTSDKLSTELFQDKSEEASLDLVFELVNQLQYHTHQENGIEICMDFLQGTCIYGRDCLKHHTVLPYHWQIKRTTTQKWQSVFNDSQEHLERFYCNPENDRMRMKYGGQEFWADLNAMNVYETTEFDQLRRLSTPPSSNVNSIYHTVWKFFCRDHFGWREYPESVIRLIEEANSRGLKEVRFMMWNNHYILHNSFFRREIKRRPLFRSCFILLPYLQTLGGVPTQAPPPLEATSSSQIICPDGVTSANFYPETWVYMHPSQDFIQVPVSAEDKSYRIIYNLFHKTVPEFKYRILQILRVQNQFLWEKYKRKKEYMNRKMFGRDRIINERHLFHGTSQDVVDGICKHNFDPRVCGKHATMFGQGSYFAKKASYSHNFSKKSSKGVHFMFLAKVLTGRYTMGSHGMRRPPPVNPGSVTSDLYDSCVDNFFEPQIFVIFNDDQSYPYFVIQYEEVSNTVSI

| Compound | IC50 |
| --- | --- |
| O=C(Cc1cccc(-c2c[nH]c(=O)c(C(F)(F)F)c2)c1)N1CCN(c2ncc(C(F)(F)F)cn2)CC1 [Example 96, 5-(3-(2-Oxo-2-(4-(5-(trifluoromethyl)pyrimidin-2-yl)piperazin-1-yl)ethyl)phenyl)-3-(trifluoromethyl)pyridin-2(1H)-one] | 1.03 nM |
| C[C@@H](Cc1c[nH]c(=O)c(C(F)(F)F)c1)OC(=O)N1CCN(c2ccc(C(F)(F)F)cc2)CC1 [Example 97, (S)-1-(6-Oxo-5-(trifluoromethyl)-1,6-dihydropyridin-3-yl)propan-2-yl 4-(4-(trifluoromethyl)phenyl)piperazine-1-carboxylate] | 0.86 nM |
| C[C@@H](Cc1c[nH]c(=O)c(C(F)(F)F)c1)OC(=O)N1CC=C(c2ccc(C(F)(F)F)cn2)CC1 [Example 98, (S)-1-(6-Oxo-5-(trifluoromethyl)-1,6-dihydropyridin-3-yl)propan-2-yl 5-(trifluoromethyl)-3′,6′-dihydro-[2,4′-bipyridine]-1′(2′H)-carboxylate] | 0.83 nM |
| C[C@@H](Cc1c[nH]c(=O)c(C(F)(F)F)c1)OC(=O)N1CCN(c2ncc(S(C)(=O)=O)cn2)CC1 [Example 101, (S)-1-(6-Oxo-5-(trifluoromethyl)-1,6-dihydropyridin-3-yl)propan-2-yl 4-(5-(methylsulfonyl)pyrimidin-2-yl)piperazine-1-carboxylate] | 0.67 nM |
| CC(Cc1c[nH]c(=O)c2ccccc12)OC(=O)N1CCN(c2ncc(C(F)(F)F)cn2)CC1 (stereo not drawn) [Example 102, 1-(1-Oxo-1,2-dihydroisoquinolin-4-yl)propan-2-yl 4-(5-(trifluoromethyl)pyrimidin-2-yl)piperazine-1-carboxylate] | 0.95 nM |
| Cc1cnc(N2CCN(C(=O)OCCc3c[nH]c(=O)c(C(F)(F)F)c3)CC2)nc1 [Example 105] | 0.92 nM |
| O=C(OCCc1c[nH]c(=O)c(C(F)(F)F)c1)N1CCN(c2ncc(C(F)(F)F)cn2)C[C@@H]1CO [Example 107, 2-(6-Oxo-5-(trifluoromethyl)-1,6-dihydropyridin-3-yl)ethyl (R)-2-(hydroxymethyl)-4-(5-(trifluoromethyl)pyrimidin-2-yl)piperazine-1-carboxylate] | 0.72 nM |
| C[C@H]1CN(c2ncc(C(F)(F)F)cn2)CCN1C(=O)OCCc1c[nH]c(=O)c(C(F)(F)F)c1 [Example 108, 2-(6-Oxo-5-(trifluoromethyl)-1,6-dihydropyridin-3-yl)ethyl (S)-2-methyl-4-(5-(trifluoromethyl)pyrimidin-2-yl)piperazine-1-carboxylate] | 0.63 nM |
| O=C(OCCc1c[nH]c(=O)c(C(F)(F)F)c1)N1CCN(c2ncc(C(F)(F)F)cn2)C[C@H]1CO [Example 110, 2-(6-Oxo-5-(trifluoromethyl)-1,6-dihydropyridin-3-yl)ethyl (S)-2-(hydroxymethyl)-4-(5-(trifluoromethyl)pyrimidin-2-yl)piperazine-1-carboxylate] | 0.65 nM |
| C[C@H]1CN(C(=O)OCCc2c[nH]c(=O)c(C(F)(F)F)c2)CCN1c1ncc(C(F)(F)F)cn1 [Example 113, 2-(6-Oxo-5-(trifluoromethyl)-1,6-dihydropyridin-3-yl)ethyl (S)-3-methyl-4-(5-(trifluoromethyl)pyrimidin-2-yl)piperazine-1-carboxylate] | 0.65 nM |
| CN(CCc1c[nH]c(=O)c(C(F)(F)F)c1)C(=O)N1CCN(c2ncc(C(F)(F)F)cn2)CC1 [Example 115, N-Methyl-N-(2-(6-oxo-5-(trifluoromethyl)-1,6-dihydropyridin-3-yl)ethyl)-4-(5-(trifluoromethyl)pyrimidin-2-yl)piperazine-1-carboxamide] | 1 nM |
| CC[C@@H](Cc1c[nH]c(=O)c(C(F)(F)F)c1)OC(=O)N1CCN(c2ncc(C(F)(F)F)cn2)CC1 [Example 116, (S)-1-(6-Oxo-5-(trifluoromethyl)-1,6-dihydropyridin-3-yl) butan-2-yl 4-(5-(trifluoromethyl)pyrimidin-2-yl)piperazine-1-carboxylate] | 0.81 nM |
| O=C(O[C@@H](CO)Cc1c[nH]c(=O)c(C(F)(F)F)c1)N1CCN(c2ncc(C(F)(F)F)cn2)CC1 [Example 117, (R)-1-Hydroxy-3-(6-oxo-5-(trifluoromethyl)-1,6-dihydropyridin-3-yl)propan-2-yl 4-(5-(trifluoromethyl)pyrimidin-2-yl)piperazine-1-carboxylate] | 0.62 nM |
| O=C(OCCc1c[nH]c(=O)c(C(F)(F)F)c1)N1CCN(c2ncc(C3CCCCC3)cn2)CC1 [Example 118, 2-(6-Oxo-5-(trifluoromethyl)-1,6-dihydropyridin-3-yl)ethyl 4-(5-cyclohexylpyrimidin-2-yl)piperazine-1-carboxylate] | 0.93 nM |
| CC(=O)c1cnc(N2CCN(C(=O)O[C@@H](C)Cc3c[nH]c(=O)c(C(F)(F)F)c3)CC2)nc1 [Example 120, (S)-1-(6-Oxo-5-(trifluoromethyl)-1,6-dihydropyridin-3-yl)propan-2-yl 4-(5-acetylpyrimidin-2-yl)piperazine-1-carboxylate] | 0.66 nM |
| CC[C@@H]1CN(c2ncc(C(F)(F)F)cn2)CCN1C(=O)OCCc1c[nH]c(=O)c(C(F)(F)F)c1 [Example 122, 2-(6-Oxo-5-(trifluoromethyl)-1,6-dihydropyridin-3-yl)ethyl (R)-2-ethyl-4-(5-(trifluoromethyl)pyrimidin-2-yl)piperazine-1-carboxylate] | 0.69 nM |
| CC[C@@H]1CN(C(=O)OCCc2c[nH]c(=O)c(C(F)(F)F)c2)CCN1c1ncc(C(F)(F)F)cn1 [Example 123, 2-(6-Oxo-5-(trifluoromethyl)-1,6-dihydropyridin-3-yl)ethyl (R)-3-ethyl-4-(5-(trifluoromethyl)pyrimidin-2-yl)piperazine-1-carboxylate] | 0.87 nM |
| O=C(OCCc1c[nH]c(=O)c(C(F)(F)F)c1)N1CC2CCC(C1)N2c1ncc(C(F)(F)F)cn1 [Example 125, 2-(6-Oxo-5-(trifluoromethyl)-1,6-dihydropyridin-3-yl)ethyl 8-(5-(trifluoromethyl)pyrimidin-2-yl)-3,8-diazabicyclo[3.2.1]octane-3-carboxylate] | 0.71 nM |
| O=C(OCCc1c[nH]c(=O)c(C(F)(F)F)c1)N1C2CCC1CN(c1ncc(C(F)(F)F)cn1)C2 [Example 126, 2-(6-Oxo-5-(trifluoromethyl)-1,6-dihydropyridin-3-yl)ethyl 3-(5-(trifluoromethyl)pyrimidin-2-yl)-3,8-diazabicyclo[3.2.1]octane-8-carboxylate] | 1 nM |

The next lines start with the values.

| IC50 | Compound |
| --- | --- |
| 0.56 nM | C[C@@H](Cc1c[nH]c(=O)c(C(F)(F)F)c1)OC(=O)N1CCC(c2ccc(C(F)(F)F)cn2)CC1 [Example 99, (S)-1-(6-Oxo-5-(trifluoromethyl)-1,6-dihydropyridin-3-yl)propan-2-yl 4-(5-(trifluoromethyl)pyridin-2-yl)piperidine-1-carboxylate] |
| 0.61 nM | C[C@@H](Cc1c[nH]c(=O)c(C(F)(F)F)c1)OC(=O)N1CCN(c2ncc(C(C)(C)O)cn2)CC1 [Example 100, (S)-1-(6-Oxo-5-(trifluoromethyl)-1,6-dihydropyridin-3-yl)propan-2-yl 4-(5-(2-hydroxypropan-2-yl)pyrimidin-2-yl)piperazine-1-carboxylate] |
| 0.53 nM | O=C(OCCc1c[nH]c(=O)c(C(F)(F)F)c1)N1CCN(c2ncc(C(F)(F)F)cn2)[C@@H](CO)C1 [Example 104, 2-(6-Oxo-5-(trifluoromethyl)-1,6-dihydropyridin-3-yl)ethyl (R)-3-(hydroxymethyl)-4-(5-(trifluoromethyl)pyrimidin-2-yl)piperazine-1-carboxylate] |
| 0.46 nM | O=C(OCCc1c[nH]c(=O)c(C(F)(F)F)c1)N1CCN(c2ccc(C(F)(F)F)cn2)CC1 [Example 106, 2-(6-Oxo-5-(trifluoromethyl)-1,6-dihydropyridin-3-yl)ethyl 4-(5-(trifluoromethyl)pyridin-2-yl)piperazine-1-carboxylate] |
| 0.61 nM | O=C(OCCc1c[nH]c(=O)c(C(F)(F)F)c1)N1CCN(c2ncc(C(F)(F)F)cn2)[C@H](CO)C1 [Example 111, 2-(6-Oxo-5-(trifluoromethyl)-1,6-dihydropyridin-3-yl)ethyl (S)-3-(hydroxymethyl)-4-(5-(trifluoromethyl)pyrimidin-2-yl)piperazine-1-carboxylate] |
| 0.62 nM | C[C@@H]1CN(C(=O)OCCc2c[nH]c(=O)c(C(F)(F)F)c2)CCN1c1ncc(C(F)(F)F)cn1 [Example 112, 2-(6-Oxo-5-(trifluoromethyl)-1,6-dihydropyridin-3-yl)ethyl (R)-3-methyl-4-(5-(trifluoromethyl)pyrimidin-2-yl)piperazine-1-carboxylate] |
| 0.53 nM | CC(C)(O)c1cnc(N2CCN(C(=O)OCCc3c[nH]c(=O)c(C(F)(F)F)c3)CC2)nc1 [Example 114, 2-(6-Oxo-5-(trifluoromethyl)-1,6-dihydropyridin-3-yl)ethyl 4-(5-(2-hydroxypropan-2-yl)pyrimidin-2-yl)piperazine-1-carboxylate] |
| 0.24 nM | O=C(OCCc1c[nH]c(=O)c(C(F)(F)F)c1)N1CCN(c2ncc(C3CCCC3)cn2)CC1 [Example 119, 2-(6-Oxo-5-(trifluoromethyl)-1,6-dihydropyridin-3-yl)ethyl 4-(5-cyclopentylpyrimidin-2-yl)piperazine-1-carboxylate] |
| 0.54 nM | CC[C@H]1CN(c2ncc(C(F)(F)F)cn2)CCN1C(=O)OCCc1c[nH]c(=O)c(C(F)(F)F)c1 [Example 121, 2-(6-Oxo-5-(trifluoromethyl)-1,6-dihydropyridin-3-yl)ethyl (S)-2-ethyl-4-(5-(trifluoromethyl)pyrimidin-2-yl)piperazine-1-carboxylate] |
| 0.48 nM | CC[C@H]1CN(C(=O)OCCc2c[nH]c(=O)c(C(F)(F)F)c2)CCN1c1ncc(C(F)(F)F)cn1 [Example 124, 2-(6-Oxo-5-(trifluoromethyl)-1,6-dihydropyridin-3-yl)ethyl (S)-3-ethyl-4-(5-(trifluoromethyl)pyrimidin-2-yl)piperazine-1-carboxylate] |
| 0.49 nM | O=C(OCCc1c[nH]c(=O)c(C(F)(F)F)c1)N1CCN(c2cnc(C(F)(F)F)cn2)CC1 [Example 127, 2-(6-Oxo-5-(trifluoromethyl)-1,6-dihydropyridin-3-yl)ethyl 4-(5-(trifluoromethyl)pyrazin-2-yl)piperazine-1-carboxylate] |
